Test results: ChEMBL document CHEMBL5316290, “Targeted Protein Degradation Induced by HEMTACs Based on HSP90” (J Med Chem, 2023)
Activity calls are given as the source filed them. The calls are words filed in the database; no cut-off is given here.

What was measured:
[1] = test system: B16-F10; assay: Induction of cell cycle arrest in mouse B16-F10 cells assessed as accumulation of cells at S phase at 250 nM incubated for 24 hrs by RNase/PI staining based flow cytometry analysis (reference value: 12.45%); format: functional
[2] = test system: B16-F10; assay: Induction of apoptosis in mouse B16-F10 cells assessed as dead cells at 125 nM incubated for 48 hrs by Annexin V-FITC/PI staining based flow cytometry analysis (reference value: 1.75%); format: functional
[3] = test system: B16-F10; assay: Anticancer activity against mouse B16-F10 cells implanted in C57BL/6J mouse assessed as increase in necrosis at 20 mg/kg, ip administered once daily for 2 weeks and measured every 2 days by H and E staining based analysis; format: functional, organism-based
[4] = molecular target: HSP90/Cyclin-dependent kinase 4 (Mus musculus) (UniProt P30285+P07901+P11499); assay: HEMTAC activity at HSP90/CDK4 in mouse B16-F10 cells assessed as induction of CDK4 degradation at 0.1 uM incubated for 24 hrs in presence of palbociclib by Western blot analysis; format: cell-based
[5] = test system: B16-F10; assay: Inhibition of colony formation in mouse B16-F10 cells at 0.25 to 1 uM incubated for 7 days with media replacement for every 2 days by crystal violet staining based analysis; format: functional, cell-based; conditions: dose 0.25-1 µM, time 7.0 day
[6] = test system: B16-F10; assay: Binding affinity to HSP90/CDK6 in mouse B16-F10 assessed as ternary complex formation at 5 uM incubated for 6 hrs by co-immunoprecipitation assay; format: cell-based
[7] = test system: HepG2; assay: Cytotoxicity against human HepG2 cells assessed as inhibition of cell growth incubated for 72 hrs by CCK-8 assay; format: functional, cell-based; conditions: HepG2, 72 h
[8] = test system: B16-F10; assay: Induction of apoptosis in mouse B16-F10 cells assessed as late apoptotic cells at 250 nM incubated for 48 hrs by Annexin V-FITC/PI staining based flow cytometry analysis (reference value: 1.97%); format: functional
[9] = test system: B16-F10; assay: Induction of cell cycle arrest in mouse B16-F10 cells assessed as accumulation of cells at G1 phase at 125 nM incubated for 24 hrs by RNase/PI staining based flow cytometry analysis (reference value: 68.89%); format: functional
[10] = test system: B16-F10; assay: Induction of cell cycle arrest in mouse B16-F10 cells assessed as accumulation of cells at S phase at 125 nM incubated for 24 hrs by RNase/PI staining based flow cytometry analysis (reference value: 12.45%); format: functional
[11] = test system: B16-F10; assay: Induction of cell cycle arrest in mouse B16-F10 cells assessed as accumulation of cells at G2 phase at 250 nM incubated for 24 hrs by RNase/PI staining based flow cytometry analysis (reference value: 16.13%); format: functional
[12] = molecular target: T1, HSP90/Cyclin-dependent kinase 6 (Mus musculus) (UniProt P07901+Q64261+P11499); assay: HEMTAC activity at HSP90/CDK6 in mouse B16-F10 cells assessed as induction of […] degradation at 0.5 uM pretreated with proteasome inhibitor, MG132 for 2 hrs followed by compound addition and measured after 24 hrs by Western blot analysis; format: cell-based
[13] = molecular target: T1, HSP90/Cyclin-dependent kinase 6 (Mus musculus); assay: HEMTAC activity at HSP90/CDK6 in mouse B16-F10 cells assessed as induction of […] degradation at 0.5 uM measured after 12 hrs by Western blot analysis; format: cell-based

Structure (SMILES): COc1c(C)cnc(Cn2cc(C#CCCn3cc(CNC(=O)CN4CCN(c5ccc(Nc6ncc7c(C)c(C(C)=O)c(=O)n(C8CCCC8)c7n6)nc5)CC4)nn3)c3c(Cl)nc(N)nc32)c1C
- Activity [1]: 2.08%
- Activity [2]: 1.77%
- Activity [3]: Active
- Activity [4]: inactive
- inhibition [5]: Active
- Activity [6]: Active
- IC50 [7]: 499 nM
- Activity [8]: 15.1%
- Activity [9]: 74.01%
- Activity [10]: 7.58%
- Activity [11]: 16.12%
- Activity [12]: inactive
- Activity [13]: Active
